Source: patent US20260285924A1, “PEPTIDE THERAPEUTICS” (priority 2023, published 2026)

Tests used:
Assay type in all cases: cell-based, human
A375-NRAS^Q61K = assay: Pan-Cancer PepTile fitness screen (lentiviral 40-mer peptide library, NGS abundance); conditions: peptide enrichment day 14 vs day 0
Protocol: (§1) A peptide tilling screen was performed in A375 similarly to a screen done in MDA-MB-231 (FIG. 1) but with a different lentiviral library. The library (Pan-Cancer library) is composed of 1020 genes tiled every 6 amino acids into 40-mer amino acid long peptides. The gene selection was based on their implication in oncogenesis either being as oncogenes or tumor suppressors. The list was built using recent literature that identified new cancer drivers as well as databases such as Uniprot keywords (KW-0656: Proto-oncogene, KW-0043: Tumor suppressor), and Gene Ontology terms (GO1900117: Apoptosis, GO1901979: Cell cycle checkpoint) (FIG. 2). Aside from Human genes, a list of viral genes was also included (KW-1121: Modulation of host cell cycle by virus) that play roles in high jacking cell cycle progression and thus in oncogenesis (FIG. 2).
(§2) The model of study is melanoma, and this disease is stratified into 4 molecular subtypes, BRAF mutants, NRAS mutants, KIT amplification, NF1 mutations (FIG. 3A). The most prominent mutations found in patient affected with metastatic melanomas are BRAF^V600E and NRAS^Q61K (FIG. 3B). RAS play a key role in oncogenesis and resistance to treatments. Indeed, RAS activating mutations is found in ~20% of all human cancers and secondary NRAS mutation leads to acquired resistance to BRAF targeted therapy such as vemurafenib. Thus, the screen was performed in an A375 cell line model which derived from human BRAF^V600E melanoma as well as an engineered A375 transduced with HA-NRAS^Q61K (FIG. 4A, B). Both cell lines grow at a similar rate but the A375-NRAS^Q61K display more than 10-fold resistance to vemurafenib treatment compared to parental A375 (FIG. 4C, D).
(§3) These cells were transduced with the Pan-Cancer library at a low multiplicity of infection (MOI=0.1-0.3). Then, genomic DNA was extracted at day 0 and day 14 post-transduction to quantify the abundance of peptide for each temporal conditions using Next-generation sequencing. Each experimental replicates were deep sequenced with at least 150 million reads and show a coverage between 82-90% of the initial Pan-Cancer Peptide library (FIG. 5). Then, for each individual peptides a cellular fitness score was calculated based on their enrichment between day 0 and day 14. 8090 peptides negatively affecting growth of A375-WT were identified and 8153 peptides for the A375-NRAS^Q61K cell line (FIG. 6). […] Those common hits are found to be tiles from ~100 genes of the Pan-Cancer gene list and show a substantial biological function clustering.

A375-WT [1] = assay: Validation assay: cell growth (CCK8, 48 hours after plating) of cells transduced with single peptide tiles; conditions: peptide overexpression
Protocol: FIGS. 9A-9C. (A) Fitness screen validation assay workflow. (B) Validation assay results (C) Fitness screen results.
(§4) FIGS. 14A-14E show PiTiles derived from DNA-binding domains of MYC and SOX17 inhibit transcriptional program. (A) Experimental workflow of A375 cell line individually transduced with lentivirus expressing GFP_147, MYC_384 or SOX17_96. 5 days post-transductions, RNA was harvested for RNA sequencing. Additionally, cells were plated for a 48-hour growth assay. (B) Cell growth of A375 cell line expressing GFP_147 (control), MYC_384 and SOX17_96. […] Red bar=FDR<0.05. We observe a negative peak in bHLHzip domain of MYC as well as HMG box domain of SOX17. Both domains mediated binding to DNA. (D) Principal Component Analysis of RNA-sequencing for both biological replicates of GFP_147, MYC_384 and SOX17_96 expressing cell lines. (E) A375 RNAseq data was analyzed using Gene Set Enrichment Analysis. For MYC_384 versus GFP_147 over ODONNEL_TARGET_OF_MYC_and_TFRC. For SOX17_96 versus GFP_147 over PRANMOOJAGO_SOX4.
All those selected hits mapped to a known protein domain with known roles in protein-protein interaction or protein-DNA interaction. […] When the fold change of every tile on the protein amino acid positions was mapped, functional regions of the protein affecting cell growth were identified. For example, on RAF1, peaks corresponding to the Ras-binding domain (RBD) were identified, and the kinase domain (FIG. 8A). […] In addition, a region of MYC that affect cell growth was identified and mapped on the DNA binding domain bHLH (FIG. 8). […] To validate the results from the screen, A375-WT and -NRAS^Q61K were transduced with GFP_147, or RAF1_78, MYC_384, or KIT_499, or SOS_120 tiles and cell growth measured using CCK8 assay
48 hours after plating (FIG. 9A). […] The CR2 domain of BRAF contain a 14-3-3 binding site and play a role in BRAF-MEK autoinhibitory complex which regulates MAPK pathway activation. One of the goals of this contextual PepTile screen was to identify peptides that would impair growth of NRAS cell line but not the parental, to address overall NRAS-driven drug resistance. For instance, more than 6000 peptide hits were detected that are exclusive to A375-NRAS^Q61K (FIG. 6). For example, ARHGAP20 and ARHGAP26 show a very different PepTile profiles between A375-NRAS^Q61K and A375-WT (FIG. 11) and seem to have more of an effect in the A375-NRAS^Q61K condition. Altogether, the Pan-Cancer PepTile screen show the potential of finding new potential peptides to target NRAS melanoma, as well as mapping protein domains involved in cellular growth in a given context.

[2] = system: SOX17 transcriptional program (PRANMOOJAGO_SOX4); assay: RNA-sequencing GSEA of A375 expressing SOX17_96 versus GFP_147; conditions: 5 days post-transduction
Protocol: as §4

A375-WT [3] = assay: Pan-Cancer PepTile/PiTile fitness screen (lentiviral 40-mer peptide library, NGS abundance); set-up: key: enrichment of each peptide's NGS abundance, early day vs Day 14; conditions: Pan-Cancer library, peptide enrichment day 14 vs day 0
Text: FIGS. 13A-13D show Pan-Cancer PiTile Workflow. (A) The Pan-Cancer peptide library is composed of 1081 proteins tiled into 40-mer peptides at every 6 amino acids of the parental protein. The DNA-encoded library is cloned into lentiviral vectors and packaged into lentivirus. (B) A375 cell line was transduced with the Pan-Cancer PiTile library. Genomic DNA was then harvested at Day2 and Day 14 post-transduction and cell populations abundance expressing the different peptides were quantified using Next-Generation Sequencing (NGS). Peptide fitness score was then calculated by the abundance of each peptide at Day2 versus Day 14. Then the fitness signal is mapped over the original amino acid positions of the derived protein. (C) Coverage of the plasmid Pan-Cancer library and peptide-amplicons from Day2 and Day 14 replicated was determined by NGS. (D) Dot plot of the experimental result obtain from screening the Pan-Cancer library in A375 cell line.
as §1, §2, §3
We built a DNA-encoded peptide library composed of all known Human oncogenes and Tumor Suppressors that we fragmented in 40 amino acid long peptides, the Pan-Cancer library. Using lentiviral expression system, we transduced the Pan-Cancer library in A375 cell line. After 14 days of growth, the frequency of each peptide is measured by NGS and this reveal which peptides affect cell fitness. […]

SOX17_17: 40-mer peptide tile of SOX17, AA start position 96, HMG box
A375-NRAS Fitness Score (A375-NRAS^Q61K): −0.77
cell growth compared to GFP_147 (A375-WT [1]): cell growth defect
GSEA of SOX17 transcriptional program [2]: downregulation of their respective transcriptional programs
A375-WT Fitness Score (A375-WT [3]): −4.49
